The source of these data is paper PMC8399023 (Molecules, 2021).

Converted amounts (≈) assume the structure as drawn.

For the data set the following is noted: 24 h, pH 7.4.

Take `CC(=O)N1CCC(NC(=O)NC23CC4CC(CC(C4)C2)C3)CC1` [AR9281]: the Solubility (as a rule, the dissolved amount per volume that the medium holds) turned out to be 277 µg/mL (≈ 867 µM).
